The results in this text go back to PubChem BioAssay (NCI).

What all share (experiment): growth of human tumour cells (NCI), 48 h
For assay [1], the system named is NCI-H23 lung.
In assay [2] the test system is LOX IMVI melanoma.
The test system of assay [3] is SK-OV-3 ovarian.
For assay [4], the system named is A498 renal.
Assay [5] has as its system SW-620 colon.
For assay [6], the system named is MOLT-4 leukemia.
Assay [7] deals with DU-145 prostate.
Assay [8] has as its system PC-3 prostate.
For assay [9], the system named is 786-0 renal.
For assay [10], the system named is MDA-MB-231 breast.
The test system of assay [11] is CCRF-CEM leukemia.

Molecules are shown by their SMILES.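 The compound was tested at five concentrations on cells cultured in 96-well plates, with a 48-hour exposure period. Abbreviation: GI50, concentration required for 50% inhibition of growth. Definition used: TGI = concentration required for complete inhibition of growth.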

In the case of `C=C1c2nc3ccccc3n2C=C(c2ccc(Cl)cc2)N1c1ccc(OC)cc1`, the TGI in assay [1] was 22.9 µM; in assay [2], over 100 µM; in assay [3], 23.7 µM; in assay [4], over 100 µM; in assay [5], over 100 µM; in assay [6] it was over 100 µM. Moreover, the TGI was 61.8 µM in [7]; 45.5 µM in [8]; 20.7 µM in assay [9]; 53.6 µM in [10]; over 100 µM in [11].

Turning to `C[C@]12CC[C@@H]3c4cc(I)c(O)cc4CC[C@H]3[C@@H]1CC[C@@H]2O`, the TGI was 25.1 µM in [1]; 25.8 µM in assay [2]; 16.4 µM in assay [3]; 24.3 µM in assay [4]; 13.5 µM in [5]; over 54.8 µM in assay [6]. Also, the TGI is 23.8 µM in [7]; over 56.4 µM in [8]; 18.4 µM in [9]; 25.3 µM in assay [10]; 22.4 µM in [11]. For the same compound, in [7], the GI50 was 6.9 µM.

Take `CCOC(=O)C1CCC(=O)N1C(=O)c1ccccc1` (stereo not drawn): the TGI in assay [1], in [2], in [4], in assay [5], in [6] and in assay [7] was over 100 µM each time. The TGI in assay [8], in [9], in assay [10] and in assay [11] was over 100 µM in each case.

Regarding `NS(=O)(=O)c1cccc(NC(=S)NC(=O)Nc2ccc(Cl)c(Cl)c2)c1`, the TGI is 34 µM in assay [1]; 33.4 µM in assay [2]; 54.1 µM in assay [3]; 26.3 µM in [4]; 37.9 µM in assay [5]; 37.6 µM in assay [6]. Besides, the TGI in assay [7] was 97.9 µM; in assay [8] it was 41.2 µM; in [9], 30.3 µM; in assay [10], 38.5 µM; in assay [11], 78.1 µM.

Turning to `COC(=O)C1(Cc2ccc3c(c2)CCC3)Cc2ccccc2C1`, the TGI is over 100 µM in assay [1]; over 100 µM in assay [2]; over 100 µM in assay [3]; over 100 µM in assay [4]; over 100 µM in assay [5]; 31 µM in [6]. For the same compound, the TGI in [7] is over 100 µM; in assay [8], over 100 µM; in assay [9], over 100 µM; in assay [10], over 100 µM; in assay [11], 30.8 µM.

For `CCOC(=O)c1nc2cc(C(F)(F)F)ccc2nc1Nc1ccc(C(=O)NC(C(=O)OCC)C(=O)OCC)cc1`, the TGI in [1] is over 100 µM; in assay [2], over 100 µM; in [3] it was 42.1 µM; in [4], 50.3 µM; in [5], over 100 µM; in [6], over 100 µM. In addition, the TGI was over 100 µM in assay [7]; over 100 µM in assay [8]; 27.6 µM in assay [9]; 50.4 µM in assay [10]; over 100 µM in assay [11].

Turning to `CO[C@]12C[C@H](CNC(=O)c3ccc[nH]3)O[C@H]1NC(=O)N2`, the TGI in assay [1], in assay [2], in assay [3], in assay [4], in [5] and in [7] was over 100 µM in each case. The TGI in [8], in assay [9], in assay [10] and in assay [11] was over 100 µM throughout.

As for `CNC(=O)CCCNC(=O)CCCC(=O)N(C)C`, the TGI in assay [1], in assay [2], in [3], in assay [4], in assay [5] and in assay [6] was over 100 µM each time. Further, the TGI in assay [7], in [8], in [9], in assay [10] and in [11] was over 100 µM throughout.

As for `CC(C)OC(=O)OCSc1ccccc1N=Cc1cccc([N+](=O)[O-])c1`, the TGI in [1], in assay [2], in [3], in [4], in [5] and in assay [6] was over 10 µM each time. Besides, the TGI in assay [7], in [8], in assay [9], in [10] and in assay [11] was over 10 µM in each case.

As for `[O-]/[N+](=C\c1ccccc1OC(=S)S)c1ccc(Cl)cc1`, the TGI was over 100 µM in assay [1]; 38.8 µM in assay [2]; over 100 µM in assay [3]; over 100 µM in assay [4]; over 100 µM in assay [5]; over 100 µM in [6]. Besides, the TGI is over 100 µM in [7]; over 100 µM in assay [8]; 50.3 µM in assay [9]; 34.7 µM in assay [10]; over 100 µM in assay [11].

As to `COc1cc(/C=C/C=C2\CC/C(=C\C=C\c3ccc(O)c(OC)c3)C2=O)ccc1O`, the TGI in [1] is over 100 µM; in [2] it was over 100 µM; in [3], over 100 µM; in assay [4], over 100 µM; in assay [5], over 100 µM; in [6], 22.2 µM. Moreover, the TGI in [7] was over 100 µM; in assay [8], over 100 µM; in assay [9], over 100 µM; in assay [10] it was over 100 µM; in assay [11] it was 8.26 µM.

As to `Oc1[nH]c2ccccc2c1N=NC(=S)Nc1ccc(Cl)cc1`, the TGI is over 100 µM in assay [1]; over 100 µM in assay [2]; over 100 µM in assay [3]; 63 µM in assay [4]; over 100 µM in [5]; over 100 µM in [6]. Further, the TGI is over 100 µM in [7]; over 100 µM in assay [8]; over 100 µM in [9]; 99.6 µM in assay [10]; over 100 µM in assay [11].

In the case of `S=c1cc(-c2ccc3c(c2)OCO3)s[nH]1`, the TGI in assay [1], in assay [2], in [3], in assay [4], in assay [5] and in assay [6] was over 100 µM in each case. For the same compound, the TGI in [7], in assay [8], in assay [9], in assay [10] and in assay [11] was over 100 µM throughout.

Regarding `C\C(=N/N=C1/C(=C\N(C)C)C(=O)NC(=O)N1C)c1ccc(Cl)cc1`, the TGI in assay [1], in assay [2], in assay [3], in assay [4], in assay [5] and in assay [6] was over 100 µM in each case. The TGI in [7], in assay [8], in assay [9], in assay [10] and in [11] was over 100 µM in each case.

As for `CC(=O)OC1CCC2C3CCc4c(C)ccc(OS(=O)(=O)c5ccccc5)c4C3CCC12C` (stereo not drawn), the TGI in assay [1], in assay [2], in assay [3], in assay [4], in [5] and in assay [6] was over 100 µM each time. Also, the TGI is over 100 µM in assay [7]; over 100 µM in assay [8]; 36.9 µM in [9]; over 100 µM in assay [10]; over 100 µM in assay [11].

For the compound `Cc1cnc2c(c1)C(=O)C1=C(C2=O)C2OC(=O)CC2OC1(C)C` (stereo not drawn), the TGI in [1] turned out to be 0.986 µM; in assay [3], 2.77 µM; in assay [4] it was 3.75 µM; in [5], 0.768 µM; in assay [7], 3.02 µM; in [8] it was 0.812 µM. Further, the TGI in [9] was determined as 0.9 µM; in assay [10] it was 0.35 µM; in assay [11], 0.151 µM.

On to `C[n+]1c(-c2ccc(/C=C/C=N\NC(=O)c3ccc(C(=O)N/N=C\C=C\c4ccc(-c5cn6ccccc6[n+]5C)cc4)cc3)cc2)cn2ccccc21`, for which the TGI in [1], in [2], in [3], in [4], in assay [5] and in assay [6] was over 100 µM throughout. In addition, the TGI in [7] was 97.6 µM; in assay [8], over 100 µM; in [9], over 56.2 µM; in [10], over 58.8 µM; in [11], over 58.2 µM.

As for `COc1ccc(N(C(=O)Nc2ccc(Cl)c(Cl)c2)C2c3cccn3C(=O)N2c2ccc(Cl)c(Cl)c2)cc1` (stereo not drawn), the TGI in [1], in assay [2], in assay [4], in [5], in assay [6] and in assay [7] was over 100 µM in each case. The TGI in assay [8], in [9], in [10] and in assay [11] was over 100 µM throughout.

As for `NC(=O)N/N=C1\CC2C3CC4C2C4C13` (stereo not drawn), the TGI in assay [1], in assay [2], in assay [3], in assay [4], in [5] and in assay [6] was over 100 µM each time. For the same compound, the TGI in assay [7], in assay [8], in assay [9], in assay [10] and in assay [11] was over 100 µM in each case.

Consider `COC(=O)c1cc(C#N)[nH]c1-c1cc(Br)cs1`, for which the TGI in assay [1] is 25.7 µM; in assay [2], 25.5 µM; in assay [3], 46 µM; in assay [4] it was 18.4 µM; in [5], 40.2 µM; in [6] it was 50.8 µM. Besides, the TGI in [7] was 43.1 µM; in assay [8], 40.9 µM; in assay [9], 48.7 µM; in assay [10], 51.7 µM; in assay [11] it was 39.3 µM.

For the compound `Cc1ccc(C2=CC(=O)/C(=C\C(=O)c3ccc(Cl)cc3)O2)cc1`, the TGI in assay [1] is 55.3 µM; in assay [2] it was 3.31 µM; in [3], 56.7 µM; in assay [4] it was 71.8 µM; in [5] it was 6.95 µM; in assay [6] it was over 100 µM. Moreover, the TGI is 87.1 µM in assay [7]; 12.2 µM in [8]; 21.6 µM in [9]; 25.1 µM in [10]; over 100 µM in assay [11].

`COc1ccc(NC(=S)NC(=O)c2ccc3c(c2)Sc2ccccc2O3)c([N+](=O)[O-])c1`: the TGI in [1] was over 100 µM; in assay [2] it was over 100 µM; in [3] it was 98.3 µM; in assay [4], 38.2 µM; in [6] it was over 100 µM; in assay [7], over 100 µM. In addition, the TGI was over 100 µM in [8], 56.5 µM in [9], 62.8 µM in [10] and over 100 µM in assay [11].

For `COc1ccc(COCC[C@H](C)OC2OC(CO[Si](C)(C)C(C)(C)C)C(OC(=O)CCCN=[N+]=[N-])C(OC(=O)CCCN=[N+]=[N-])C2OC(=O)CCCN=[N+]=[N-])cc1` (stereo partly drawn), the TGI in assay [1], in assay [2], in assay [3], in [4], in assay [5] and in assay [7] was over 100 µM throughout. Moreover, the TGI in assay [8], in assay [9], in assay [10] and in assay [11] was over 100 µM in each case.

Consider `COc1cc2c(cc1Cc1c(F)cccc1Cl)nc(-c1c(F)cccc1Cl)n2Cc1c(F)cccc1Cl`, for which the TGI is over 100 µM in assay [1]; 70 µM in [3]; 84 µM in assay [4]; over 100 µM in assay [6]; over 100 µM in [7]; over 100 µM in [8]. Also, the TGI in [9] was 64.2 µM; in [10] it was over 100 µM; in [11], over 100 µM.

As to `C[C@H]1SC(c2ccc(Cl)cc2Cl)N(NC(=O)c2ccncc2)C1=O` (stereo partly drawn), the TGI in assay [1] was over 100 µM; in assay [3], over 100 µM; in [4], 78.4 µM; in assay [7] it was over 100 µM; in [8] it was 29.7 µM; in assay [10], over 100 µM. In assay [11], this compound came in with a TGI of over 100 µM.
